Laboratory results taken from patent US20170266269A1, “METHODS OF IDENTIFYING ANTIGENS FOR VACCINES” (UNIVERSITY OF WASHINGTON THROUGH ITS CENTER FOR …, priority 2014, published 2017).

Experiments:
[1] = tested on: human peripheral blood mononuclear cells (PBMC); test: IL-10 ELISPOT of human PBMC with epitope peptides; assay type: cell-based; settings: CD105 and HIF1α peptides
From the text: (§1) A plurality of immunological assays may be used with the methods or processes described herein to test at least one peptides of putative epitopes or nucleic acids encoding peptides of putative epitopes to determine if the peptide of the putative epitope elicits an immune response, often the sub-type of the immune response may be determined, often the immunologic assay may be an ELISPOT assay, an ELISA assay, a multiplex assay or the like. For example, a suitable immunologic assay may include performing an ELISPOT assay using cells derived from donors. The ELISPOT assay may include isolating peripheral blood mononuclear cells (PBMC) from at least 10, preferably at least 40, subjects, often the subjects are human donors. The amount of at least one cytokine production in cells following administration of the peptides of putative epitopes may be determined by the ELISPOT assay. The at least one cytokine may be IFNγ and/or IL-10 such that data indicating cytokine production may represent a positive or a negative response of cells to the peptide sequence of the putative epitope. In some cases, positive responses may have a statistically significant difference (p<0.05) between a mean number of spots from five replicates in the experimental wells and the mean number from no antigen control wells. In other cases, negative responses may not have a statistically significant difference (p<0.05) between a mean number of spots from five replicates in the experimental wells and the mean number from no antigen control wells.
(§2) This example describes the identification of unique and discrete amino acid sequences of antigenic epitopes from breast cancer stem cell and epithelial mesenchymal transformation peptides CD105 and HIF-1a, both of which are promiscuous MHC class II binders and unexpectedly stimulate high (magnitude and incidence) interferon gamma (IFNγ) and low or no interleukin (IL)-10 responses from human peripheral blood mononuclear cells (PBMC). CD105 and HIF1α have been juxtaposed to allow construction of extended epitope sequences for inclusion in either a peptide or DNA plasmid-based multi-antigen polyepitope CD4+ T-cell vaccine targeting breast cancer stem cell and epithelial mesenchymal transformation antigens in cancer patients.
(§3) […] peptides, predicted to bind promiscuously to human MHCII, were selected using web-based algorithms according to the methods described herein. Peripheral blood mononuclear cells (PBMC) from 20 female breast cancer patients were cryopreserved and evaluated by ELISPOT for antigen specific IFNγ or IL-10 secretion, according to our published methods. […] Data is reported as the mean number of spots for each experimental antigen minus the mean number of spots detected in no antigen control wells (corrected spots per well: CSPW). Positive responses were defined by a statistically significant difference (p<0.05) between the mean number of spots from five replicates in the experimental wells and the mean number from no antigen control wells for an individual (see FIG. 15).
(§4) The unpaired, two-tailed Student's t-test, Fischer's exact test or X^2 test was used to evaluate differences between groups. […] All statistical analyses were performed using GraphPad Prism 5.04 (e.g., GraphPad Software).

[2] = tested on: human peripheral blood mononuclear cells (PBMC); test: IFNγ ELISPOT of human PBMC with epitope peptides; assay type: cell-based; settings: CD105 and HIF1α peptides
From the text: as §1, §2, §3, §4

| Substance | IL-10 response [1] | IFNγ response [2] |
| --- | --- | --- |
| VLLVLSVNSSVFLHLQALGI [CD105 p 96-114] | low or no | strong |
| MRLTISYLRVRKLLDAGDLDIED [HIF1α p60-82] | no or low | strong |
| YELAHQLPLPHNVSSH [HIF1α p38-53] | no or low | strong |
| CD105 p626-642: peptide at the C-terminus of CD105 (VVAVAAPASSESSSTNH; UniProt P17813 626-642, looked up, fragment) | low or no | strong |
| LHLAYNSSLVTFQEP [CD105 p116-130] | low or no | strong |
| GHKEAHILRVLPGHSAGPRTVTV [CD105 p214-236] | low or no | strong |
